What all share (format): cell-based
The subject of experiment [1] is relevant ATCC QC organisms. The experiment in a line: Broth microdilution MIC, QC (Example 6). The method, then:
(§1) Test Compounds: The test agents BisEDT (MB-1-B3; Lot No. ED268-1-11-01), MB-2B, and MB-6 were stored at room temperature, in the dark, until assayed. The solvent and diluent for the test agents was DMSO (Sigma; St. Louis, MO; Lot No. SHBB9319V) and the prepared stock concentration was 6,464 μg/mL (101× the final test concentration).
(§2) Test compounds were evaluated at a concentration range of 0.06-64 μg/mL. For Gram-negative test isolates, amikacin and ceftazidime (alone and with clavulanate at a fixed concentration of 4 μg/mL) were evaluated over a concentration range of 0.06-64 μg/mL; meropenem and levofloxacin were evaluated over a concentration range of 0.008-8 μg/mL. For the testing of S. aureus, clindamycin, daptomycin, levofloxacin and vancomycin were evaluated at a concentration range of 0.008-8 μg/mL; linezolid was tested from 0.03-32 μg/mL.
Organisms: The test organisms as shown in Tables 11-15 consisted of clinical isolates from the Micromyx (MMX) repository and reference strains from the American Type Culture Collection (ATCC; Manassas, VA), National Collection of Type Cultures (NCTC; Public Health England, Salisbury, UK), the Network on Antimicrobial Resistance in Staphylococcus aureus (NARSA; BEI Resources, Manassas, VA), and the Centers for Disease Control and Prevention (CDC; Atlanta, GA). The test organisms were maintained frozen at −80° C. Prior to testing, the isolates were cultured on Tryptic Soy Agar with 5% sheep blood (BAP; Becton Dickson [BD]/BBL; Sparks, MD; Lot Nos. 9080650 and 9108563) at 35° C. Relevant ATCC quality control (QC) organisms (Table 16) were included during testing in accordance with CLSI guidelines (3). Further details on the genetic characterization of the isolates where available can be found in Table 17.
(§3) Media: Cation-adjusted Mueller Hinton broth (CAMHB; BD; Lot No. 8190586) was used as the medium for testing (2, 3). For testing daptomycin, calcium was supplemented with […] Ca^2+, resulting in a final concentration of […] Ca^2+ (2, 3).
(§4) MIC Assay Procedure: MIC values were determined using a broth microdilution procedure described by CLSI (2, 3). Automated liquid handlers (Multidrop 384, Labsystems, Helsinki, Finland; Biomek 2000 and Biomek F X, Beckman Coulter, Fullerton CA) were used to conduct serial dilutions and liquid transfers.
(§5) To prepare the drug mother plates, which would provide the serial drug dilutions for the replicate daughter plates, the wells of columns 2 through 12 of standard 96-well microdilution plates (Costar 3795) were filled with 150 μl of the appropriate diluent for each row of drug. The test articles and comparator compounds (300 μl at 101× the highest concentration to be tested) were dispensed into the appropriate wells in column 1. The Biomek 2000 was then used to make 2-fold serial dilutions in the mother plates from column 1 through column 11. The wells of column 12 contained no drug and served as the organism growth control wells for the assay.
(§6) The daughter plates were loaded with 190 μL per well of RPMI using the Multidrop 384. The test panels were prepared on the Biomek FX instrument which transferred 2 μL of drug solution from each well of a mother plate to the corresponding well of each daughter plate in a single step.
(§7) A standardized inoculum of each test organism was prepared per CLSI methods to equal a 0.5 McFarland standard, followed by a dilution of 1:20. The plates were then inoculated with 10 μL of the diluted inoculum using the Biomek 2000 from low to high drug concentration resulting in a final concentration of approximately 5×10^5 CFU/mL.
(§8) Plates were stacked 3-4 high, covered with a lid on the top plate, placed into plastic bags, and incubated at 35° C. for 16 to 20 hr (vancomycin was read for S. aureus after 24 hr incubation time). The MIC was recorded as the lowest concentration of drug that inhibited visible growth of the organism.
Background: In broth dilution the organism is exposed to a series of concentrations in liquid medium.

For a further experiment, the system named is Pseudomonas aeruginosa. The experiment can be described thus: Broth microdilution MIC (Example 6). The method, then:
(§9) Test Compounds: The test agents BisEDT (MB-1-B3; Lot No. ED268-1-11-01), MB-2B, and MB-6 were stored at room temperature, in the dark, until assayed.
(§10) For testing daptomycin, calcium was supplemented with […] Ca^2+, resulting in a final concentration of […] Ca^2+ (2, 3).
(§11) MIC Assay Procedure: MIC values were determined using a broth microdilution procedure described by CLSI (2, 3).
(§12) The Biomek 2000 was then used to make 2-fold serial dilutions in the mother plates from column 1 through column 11. The wells of column 12 contained no drug and served as the organism growth control wells for the assay.
(§13) The test panels were prepared on the Biomek FX instrument which transferred 2 μL of drug solution from each well of a mother plate to the corresponding well of each daughter plate in a single step.
as §7, §8

Another experiment has as its system Escherichia coli. The experiment can be described thus: Broth microdilution MIC (Example 6). The method, then:
as §9, §10, §11, §12, §13, §7, §8

Another experiment has as its system Klebsiella pneumoniae. The experiment can be described thus: Broth microdilution MIC (Example 6). The method, then:
as §9, §10, §11, §12, §13, §7, §8

In a further experiment the test system is Acinetobacter baumannii. The experiment in a line: Broth microdilution MIC (Example 6). The method, then: as §1, §2, §3, §4, §5, §6, §7, §8
Another experiment relates to S. pneumoniae. The experiment in a line: Broth microdilution MIC (Example 5). The method, then:
Test and Comparator Agents: The test agents were stored at room temperature until assayed. […] The stock solutions were allowed to stand for at least 1 hr prior to use to auto-sterilize.
TestMedia: Test media were prepared and stored in accordance with guidelines from CLSI (4, 6, 7).
Broth Microdilution MC Testing (Aerobic Bacteria and Yeast): The broth microdilution assay method employed for the susceptibility testing of aerobic bacteria (excluding N. gonorrhoeae which was evaluated by agar dilution) and yeast essentially followed the procedures described by CLSI (3, 4, 7, 8) and employed automated liquid handlers to conduct serial dilutions and liquid transfers. […] These would become the ‘mother plates’ from which ‘daughter’ or test plates would be prepared. The drugs (300 μL at 40× the desired top concentration in the test plates) were dispensed into the appropriate well in Column 1 of the mother plates. The Biomek 2000 was used to make serial two-fold dilutions through Column 11 in the “mother plate”. The wells of Column 12 contained no drug and ultimately served as the organism growth control wells.
The daughter plates were prepared using the Biomek FX which transferred 5 μL of drug solution from each well of a mother plate to the corresponding well of the correct daughter plate in a single step.
A standardized inoculum of each organism was prepared per CLSI methods (3, 7). Isolated colonies of each test isolate were picked from the primary plate and a suspension was prepared to equal a 0.5 McFarland turbidity standard. Standardized suspensions were then diluted […] (1:100 for yeast, 1:20 for bacteria). After dilution, the inoculum suspensions were then transferred to compartments of sterile reservoirs divided by length (Beckman Coulter), and the Biomek 2000 was used to inoculate all plates. Daughter plates were placed on the Biomek 2000 in reverse orientation so that plates were inoculated from low to high drug concentration.
The Biomek 2000 delivered 10 μL of standardized inoculum into each well of the appropriate daughter plate for an additional 1:20 dilution.
Plates were stacked 4 high, covered with a lid on the top plate, placed into plastic bags, and incubated at 35° C. for approximately 24-48 hr for all yeast isolates and 16-24 hr for aerobic bacteria. Plates were viewed from the bottom using a plate viewer. […] MIC endpoints for the test agents and control compounds were read per CLSI criteria (3, 7).

Each structure is given as a SMILES string.

For `CC(C)(O/N=C(\C(=O)N[C@@H]1C(=O)N2C(C(=O)[O-])=C(C[n+]3ccccc3)CS[C@H]12)c1csc(N)n1)C(=O)O.O=C(O)[C@H]1/C(=C/CO)O[C@@H]2CC(=O)N21` [CAZ + CLAV], the figures for the MIC in experiment [1] (K. pneumoniae ATCC BAA-1705) and in experiment [1] (P. aeruginosa ATCC 27853) were >64/4 and 2/4, respectively.

Regarding `CC(C)(O/N=C(\C(=O)N[C@@H]1C(=O)N2C(C(=O)[O-])=C(C[n+]3ccccc3)CS[C@H]12)c1csc(N)n1)C(=O)O.O=C(O)[C@H]1/C(=C/CO)O[C@@H]2CC(=O)N21` [CAZ/CLAV], the minimal inhibitory concentration (MIC) in the experiment on Pseudomonas aeruginosa (P. aeruginosa isolate CDC 230, β-lactamase type VIM/OXA) is 32/4; in the experiment on Pseudomonas aeruginosa (P. aeruginosa isolate CDC 231, β-lactamase type KPC/OXA), >64/4; against Pseudomonas aeruginosa (P. aeruginosa isolate CDC 241, β-lactamase type IMP/OXA), >64/4; in the experiment on Pseudomonas aeruginosa (P. aeruginosa isolate CDC 246, β-lactamase type NDM/OXA), >64/4; against Pseudomonas aeruginosa (P. aeruginosa isolate CDC 250, β-lactamase type NDM/OXA), >64/4; in the experiment with Pseudomonas aeruginosa (P. aeruginosa isolate CDC 356, β-lactamase type KPC), 64/4. Besides, the MIC against Pseudomonas aeruginosa (P. aeruginosa isolate CDC 439, β-lactamase type IMP) is given as >64/4; with Pseudomonas aeruginosa (P. aeruginosa isolate CDC 444, β-lactamase type VIM) it was 32/4; against Pseudomonas aeruginosa (P. aeruginosa isolate CDC 457, β-lactamase type VIM), 64/4; in the experiment on Pseudomonas aeruginosa (P. aeruginosa isolate CDC 516, β-lactamase type KPC/AmpC), 64/4; with Pseudomonas aeruginosa (P. aeruginosa isolate CDC 518, β-lactamase type KPC/AmpC), 32/4; against Escherichia coli (E. coli ATCC BAA-2471, NDM), >64/4. Also, the MIC in the experiment with Escherichia coli (E. coli CDC 114, ESBL/KPC) is recorded as 64/4; in the experiment with Escherichia coli (E. coli CDC 118, ESBL/NDM), >64/4; in the experiment on Escherichia coli (E. coli CDC 435, NDM), >64/4; with Escherichia coli (E. coli CDC 451, KPC) it was 16/4; in the experiment with Escherichia coli (E. coli CDC 503, ESBL/NDM), >64/4; against Escherichia coli (E. coli MMX 5745, KPC) it was 16/4. Moreover, the MIC was 1/4 against Escherichia coli (E. coli MMX 5755, ESBL); >64/4 against Klebsiella pneumoniae (K. pneumoniae ATCC BAA-1705, ESBL/KPC); >64/4 with Klebsiella pneumoniae (K. pneumoniae CDC 112, KPC); >64/4 in the experiment on Klebsiella pneumoniae (K. pneumoniae CDC 113, ESBL/KPC); >64/4 in the experiment on Klebsiella pneumoniae (K. pneumoniae CDC 115, ESBL/KPC); 64/4 with Klebsiella pneumoniae (K. pneumoniae CDC 120, ESBL/KPC). Moreover, the MIC is 8 µg/mL against Klebsiella pneumoniae (K. pneumoniae CDC 126, ESBL/KPC); >64/4 in the experiment on Klebsiella pneumoniae (K. pneumoniae CDC 129, ESBL/KPC); >64/4 against Klebsiella pneumoniae (K. pneumoniae CDC 135, ESBL/VIM); >64/4 with Klebsiella pneumoniae (K. pneumoniae CDC 138, ESBL/NDM); >64/4 in the experiment on Klebsiella pneumoniae (K. pneumoniae CDC 158, ESBL/NDM/OXA); 64/4 with Acinetobacter baumannii (A. baumannii isolate CDC 273, β-lactamase type ESBL/OXA). The MIC in the experiment on Acinetobacter baumannii (A. baumannii isolate CDC 274, β-lactamase type ESBL/OXA) is >64/4; with Acinetobacter baumannii (A. baumannii isolate CDC 275, β-lactamase type ESBL/OXA), >64/4; in the experiment on Acinetobacter baumannii (A. baumannii isolate CDC 277, β-lactamase type ESBL/OXA), >64/4; in the experiment on Acinetobacter baumannii (A. baumannii isolate CDC 284, β-lactamase type ESBL/OXA), 16/4; in the experiment with Acinetobacter baumannii (A. baumannii isolate CDC 307, β-lactamase type OXA) it was 64/4; in the experiment with Acinetobacter baumannii (A. baumannii isolate CDC 308, β-lactamase type ESBL/OXA) it was 64/4. In addition, the MIC in the experiment on Acinetobacter baumannii (A. baumannii isolate CDC 311, β-lactamase type OXA) was >64/4; in the experiment with Acinetobacter baumannii (A. baumannii isolate CDC 312, β-lactamase type OXA), >64/4; in the experiment with Acinetobacter baumannii (A. baumannii isolate CDC 313, β-lactamase type ESBL/OXA), >64/4; in the experiment on Acinetobacter baumannii (A. baumannii isolate NCTC 13304, β-lactamase type OXA), >64/4.

As to `COc1cc(Cc2cnc(N)nc2N)cc(OC)c1OC.Cc1cc(NS(=O)(=O)c2ccc(N)cc2)no1` [Trimeth/Sulfa], the MIC against S. pneumoniae (S. pneumoniae MMX 880, LevR SXTR CCR EryR PenR) is recorded as 4/76; with S. pneumoniae (S. pneumoniae MMX 937, MemR SXTR CCR EryR PenR), 16/304; with S. pneumoniae (S. pneumoniae MMX 3959, CCR EryR), 2/38; in the experiment with S. pneumoniae (S. pneumoniae MMX 5440, MemR SXTR CCR EryR PenR), 16/304; in the experiment with S. pneumoniae (S. pneumoniae MMX 5445, MemR SXTR CCR EryR PenR) it was 8/152; in the experiment with S. pneumoniae (S. pneumoniae MMX 8133, MemR SXTR CCR EryR PenR), 8/152.

The term MIC denotes the least concentration at which growth counts as inhibited.

The values are drawn from patent US20240285571A1, “METHODS OF TREATING BONE INFECTIONS” (MICROBION CORPORATION, priority 2020, published 2024).
